# Laboratory results from ChEMBL document CHEMBL3421552, “Penicitols A-C and penixanacid A from the mangrove-derived Penicillium chrysogenum HDN11-24” (J Nat Prod, 2015).
# Legend:
# HEK293 = assay: Cytotoxic activity against human HEK293 cells by SRB method; format: cell-based
# HeLa = assay: Cytotoxic activity against human HeLa cells by MTT method; format: functional, cell-based
# [1] = Cytotoxic activity against human HCT116 cells by SRB method; format: functional, cell-based; conditions: HCT-116
# A549 = assay: Cytotoxic activity against human A549 cells by SRB method
# [2] = Cytotoxic activity against human Bel7402 cells by MTT method; conditions: Bel-7402
SMILES,IC50 (HEK293) [µM],IC50 (HeLa) [µM],IC50 [1] [µM],IC50 (A549) [µM],IC50 [2] [µM]
COc1cccc2c1C(=O)c1c(O)c3c(c(O)c1C2=O)C[C@@](O)(C(=O)CO)C[C@@H]3O[C@H]1C[C@H](N)[C@H](O)[C@H](C)O1 [DOXORUBICIN],0.04,0.5,0.2,–,–
COC(=O)c1ccc2c(=O)c3cc(O)cc(C(=O)O)c3oc2c1O,28.5,10,19,16.9,30.6
CO[C@@]1(C)C[C@H]2O[C@H](C)[C@@H](C)c3c(C)c(O)cc(c32)O1,42.5,35.5,> 50,> 50,> 50
CO[C@H]1CCc2oc(=O)c3c(O)cc(C)cc3c21,31.4,12.6,22.5,10.8,40.5
Cc1c(O)c(O)c(Oc2cc(O)c(C)c3c2C(=O)O[C@H](C)[C@H]3C)c2c1[C@H](C)[C@@H](C)O2,6.4,3.4,3.5,9.6,7
CO[C@]1(C)C[C@H]2O[C@H](C)[C@@H](C)c3c(C)c(O)cc(c32)O1,32.6,45,> 50,> 50,46.6
CO[C@]12CCCC[C@H]1[C@H]1O[C@H](C)[C@@H](C)c3c(O)c(O)cc(c31)O2,6.7,4.6,5.6,7.6,10.5
